Measurements taken from patent publication US10000486B2 (priority 2012, dated 2018).
Like-named read-outs stand apart in the source and are kept apart here.

Experiments:
[1] = system: Lassa GP-pseudotyped-virus; assay: microbe, parasite or virus in culture; format: cell-based, Lassa fever virus; settings: Human immunodeficiency virus 1, read-out: Activity (EC50 in μM vs. pseudotyped virus) Lassa
[2] = system: Machupo pseudotyped virus; assay: organism not typed; format: cell-based
Junín pseudotyped virus = assay: organism not typed; format: cell-based; settings: read-out: Activity (EC50 in μM vs. pseudotyped virus) Junín
VSVg pseudotyped virus = assay: organism not typed; format: cell-based
[3] = read-out: Activity (EC50 in μM vs. pseudotyped virus) Machupo
[4] = read-out: Activity (EC50 in μM vs. pseudotyped virus) VSVg

| SMILES | EC50 [1] | EC50 [2, 3] | EC50 (Junín pseudotyped virus) | EC50 (VSVg pseudotyped virus; [4]) | EC50 ([2]; read-out: EC50 (Note 1, Machupo)) | EC50 (VSVg pseudotyped virus; read-out: EC50 (Note 2, VSVg)) |
| --- | --- | --- | --- | --- | --- | --- |
| CC(C)Oc1ccc(-n2cnc3cc(/C=C\c4ccc(C5(O)CCOCC5)cc4)ccc32)cc1 [Compound 59, 4-[4-[(Z)-2-[1-(4-isopropoxyphenyl)benzimidazol-5-yl]vinyl]phenyl]tetrahydropyran-4-ol] | < 1 µM | < 1 µM | < 1 µM | 1 to 10 µM |  |  |
| CCOc1ccc(-n2cnc3cc(CCc4ccc(CC)cc4)cnc32)cc1 [Compound 28, 3-(4-ethoxyphenyl)-6-[2-(4-ethylphenyl)-ethyl]imidazo[4,5-b]pyridine] | < 1 µM | < 1 µM | < 1 µM | > 50 µM |  |  |
| CC(C)Oc1ccc(-n2cnc3cc(/C=C\c4ccc(C(C)O)cc4)ccc32)cc1 (stereo not shown) [Compound 51, 1-[4-[(Z)-2-[1-(4-isopropoxyphenyl)benzimidazol-5-yl]vinyl]phenyl]ethanol] | < 1 µM | < 1 µM | < 1 µM | 1 to 10 µM |  |  |
| CCOc1ccc(-n2cnc3cc(/C=C/c4ccc(C(F)(F)F)cc4)ccc32)cc1 [Compound 12, 1-(4-ethoxyphenyl)-5-[(E)-2-[4-(trifluoromethyl)phenyl]vinyl]benzimidazole] | 10 to 50 µM |  | 10 to 50 µM |  | 51 µM | 196 µM |
| CCOc1ccc(-c2cnc3cc(NCc4ccc(CC)cc4)ccn23)cc1 [Compound 65, 3-(4-ethoxyphenyl)-N-[(4-ethylphenyl)-methyl]imidazo[1,2-a]pyridin-7-amine] | < 1 µM | < 1 µM | < 1 µM | 1 to 10 µM |  |  |
| CC(C)Oc1ccc(-n2cnc3cc(/C=C\c4ccc(C(C)(C)N)cc4)ccc32)cc1 [Compound 60, 2-[4-[(Z)-2-[1-(4-isopropoxyphenyl)benzimidazol-5-yl]vinyl]phenyl]propan-2-amine] | < 1 µM | < 1 µM | < 1 µM | > 50 µM |  |  |
| CC(C)Oc1ccc(-n2cnc3cc(/C=C\c4ccc(C(C)(C)O)cc4)ccc32)cc1 [Compound 38, 2-[4-[(Z)-2-[1-(4-isopropoxyphenyl)benzimidazol-5-yl]vinyl]phenyl]-propan-2-ol] | < 1 µM | < 1 µM | < 1 µM | 1 to 10 µM |  |  |
| CCOc1ccc(-n2cnc3cc(/C=C\c4ccc(CC)cc4)cnc32)cc1 [Compound 22, 3-(4-ethoxyphenyl)-6-[(Z)-2-(4-ethylphenyl)vinyl]imidazo[4,5-b]pyridine] | < 1 µM | < 1 µM | < 1 µM | 10 to 50 µM |  |  |
| CCOc1ccc(-n2cnc3cc(/C=C\c4ccc(C(F)(F)F)cc4)ccc32)cc1 [Compound 13] | < 1 µM | < 1 µM | < 1 µM | 10 to 50 µM |  |  |
| C=C(C)c1ccc(/C=C\c2ccc3c(c2)ncn3-c2ccc(OC(C)C)cc2)cc1 [Compound 40, 5-[(Z)-2-(4-isopropenylphenyl)-vinyl]-1-(4-isopropoxyphenyl)-benzimidazole] | < 1 µM | < 1 µM | < 1 µM | 10 to 50 µM |  |  |
| CC(C)Oc1ccc(-n2cnc3cc(/C=C\c4ccc(C5(N)CC5)cc4)ccc32)cc1 [Compound 54, 1-[4-[(Z)-2-[1-(4-isopropoxyphenyl)benzimidazol-5-yl]vinyl]phenyl]cyclopropanamine] | < 1 µM | < 1 µM | < 1 µM | 10 to 50 µM |  |  |
| COc1ccc(-n2cnc3cc(OCc4ccc(C(C)C)cc4)ccc32)cc1 [Compound 30, 5-[(4-isopropylphenyl)methoxy]-1-(4-methoxyphenyl)benzimidazole] | < 1 µM | < 1 µM | < 1 µM | 10 to 50 µM |  |  |
| CC(C)Oc1ccc(-n2cnc3cc(/C=C\c4ccc(C5(O)CNC5)cc4)ccc32)cc1 [Compound 58, 3-[4-[(Z)-2-[1-(4-isopropoxyphenyl)benzimidazol-5-yl]vinyl]phenyl]azetidin-3-ol] | 1 to 10 µM | < 1 µM | < 1 µM | 10 to 50 µM |  |  |
